Measurements reported in patent US20210378934A1, “HAIR CARE ACTIVE AGENT” (GIVAUDAN SA, priority 2018, published 2021).
In brackets after ≈: the same amount, converted by molar mass. Read-outs that look alike come from different tables or passages of the source.

Columns and labels:
[1] = system: co-culture of Normal Human Epidermal Keratinocytes (NHEKs) and Normal Human Melanocytes (NHMs); assay: Melanin production in NHK/NHM co-culture: comparison (Example 7); type: cell-based; conditions: 5 days; for effect on melanin synthesis / melanin content (in words): taxifolin glucoside 0.13 μg/mL alone, + N-acetyl tyrosine 15 μg/mL or + L-tyrosine 15 μg/mL
Source text: The aim of this study was to compare the effect of the hair care active agent of the present invention, which comprises taxifolin glucoside and N-acetyl tyrosine, with those of L-tyrosine (positive reference), of taxifolin glucoside, and of a mixture of taxifolin glucoside and L-tyrosine. The model used for this comparison was a co-culture of Normal Human Epidermal Keratinocytes (NHEKs) and Normal Human Melanocytes (NHMs).
The cell culture was realized with primary cells isolated from human skin biopsies.
Normal Human Keratinocytes (NHKs) were seeded at 60000 cells per well in 6-wells plates pre-coated with collagen I. 4 hours later, Normal Human Melanocytes (NHMs) were seeded at 60 000 cells per well in the same 6-wells plates. The cells were incubated for 48 hours in complete medium (EpiLife® supplemented with HKGS=Human Kerationcyte Growth Supplement).
After 48 hours of culture, the cells were stimulated for 5 days with the following compositions: • L-tyrosine at 450 μg/mL (Sigma) • Taxifolin glucoside at 0.13 μg/mL • Taxifolin glucoside at 0.13 μg/mL+N-acetyl tyrosine at 15 μg/mL (similar to Example 1) • Taxifolin glucoside at 0.13 μg/mL+L-tyrosine at 15 μg/mL (Sigma)
The compositions were diluted in a basal medium without supplements (EpiLife®). Every 2 days, the treatments were renewed.
After 5 days of treatment, cells were rinsed off with PBS. Then, in each well, 200 μL of a 0.5N NaOH solution was added. The cell lysates were collected in 1.5 mL microtubes with secure caps. In parallel, a standard range of melanin was prepared (1000 μg/mL). Microtubes of samples and standard range were heated for 1 hour at 80° C. in a dry bath. After the heating, 100 μL of each sample was transferred to a 96-wells plate.
Optical density was measured at 405 nm to determine the melanin content. […]
If it was not significant, the data was evaluated with statistical parametric tests (ANOVA followed by Dunnett's multiple comparisons test).
If it was significant, the data was evaluated with statistical non parametric tests (ANOVA of Kruskall-Wallis followed by a Mann-Whitney U test).

Solubility = type: physicochemical
melanogenesis = conditions: Sang Mi An et al. Phytother. Res. 22, 1200-1207 (2008); cited from earlier work
[2] = system: melanocytes and melanoblasts in Anagen VI human hair follicles; assay: NKI/beteb melanocyte quantification in micro-dissected hair follicles under oxidative stress (Example 5); type: cell-based; conditions: cumene hydroperoxide oxidative stress
Method: Anagen VI human hair follicles (HFs) were dissected from the scalp (Donor). The HFs used were selected after 18 hours of pre-culture. The following parameters were evaluated in the selection procedure: growth rate (>0.18 mm/18 hours), morphology (no signs of dystrophy).
Starting from day 1, after the selection at day 0, the test compounds were dissolved in the culture medium and the HFs were cultured up to planned endpoints. Twelve hair follicles were used per treatment for each read out parameter. The culture medium was renewed every other day.
Total melanocytes quantification was obtained following NKI/beteb-DAPI double immunostaining of the cryo-sections. NKI/beteb antibody (#MON7006-1 by Monosan) recognizes a (pre-) melanosomal antigen present in all melanocytes (i.e. both active melanocytes and melanoblasts).
On the immunostained sections, image analysis was performed in order to quantify the number of NKI-beteb positive cells within each hair follicle. The obtained value was normalized relative to the total number of cells of the considered area.
Image analysis was performed using ImageJ software (NIH, USA).
All quantitative data was summarized in terms of the mean score, standard deviation and standard error of the mean for each treatment.
Differences between groups were evaluated by One-way ANOVA with permutation test followed by Tukey and t-test with permutation.

[3] = system: Anagen VI human hair follicles; assay: ROS evaluation (DCFH-DA) in micro-dissected hair follicles under cumene hydroperoxide stress (Example 5); type: cell-based; conditions: 50 μM cumene hydroperoxide, 1 hour (oxidative stimulus)
Method: After the selection, the HFs were incubated for 1 hour with the standard solution from Example 1 dissolved in William's E medium. Afterwards, the HFs were cultured for 30 min in the presence of dichlorofluoerescein diacetate (DCFH-DA), a probe that reacts with ROS to become fluorescent. […] At the end of the experimental phase, the HFs were harvested, cryo-fixed and cut at the cryo-micro-tome for consequent image acquisition and image analysis of fluorescence within the sections. A slide for each HF was processed by image acquisition and related analysis (i.e. 12 images for each treatment). […]

N[C@@H](Cc1ccc(O)cc1)C(=O)O [L-tyrosine]
melanin content / synthesis of melanin, change compared to the untreated condition ([1]; L-tyrosine 450 μg/mL, taxifolin glucoside 0.13 μg/mL + N-acetyl tyrosine 15 μg/mL, p<0.001): +35%

O=C1c2c(O)cc(O)cc2O[C@H](c2ccc(O)c(O)c2)[C@H]1O [taxifolin]
solubility (Solubility; water with taxifolin glucoside, aqueous with cosolvent or surfactant or cyclodextrin, suitable amounts of taxifolin glucoside, molar ratio about 1:1, read-out: solubility of taxifolin in water in the presence of taxifolin glucoside): ≥ 20000 µg/mL | solubility (Solubility; water, typical, read-out: solubility of taxifolin in water): ~1000 µg/mL (≈ 3.29 mM) | effect on melanogenesis (in words) (melanogenesis): inhibit melanogenesis

Taxifolin glucoside
effect on melanin synthesis / melanin content (in words) [1]: not able to induce synthesis of melanin | effect on melanin synthesis / melanin content (in words) ([1]; listed as taxifolin glucoside): does not have any influence

cumene hydroperoxide
reduction of the number of melanocytes compared to the untreated condition [2]: 78% | increase of ROS production compared to the untreated condition [3]: +256%
